Measurements published in the Deep4Chem optical property database.

Assay: solvent given as SMILES

In the case of `Cc1cccn2c1cc1c3ccccc3nc(-c3cccs3)c12`, the emission maximum (in CS(C)=O) is reported as 514 nm.

`N#Cc1cccc(-c2nc(-c3ccccc3)c(-c3ccccc3)[nH]2)c1` showed an emission maximum (in CO) of 440 nm.

Compound `CSc1ccc(/C=C/c2cnc3ccccc3n2)cc1` has an emission maximum (in C1CCOC1) of 467 nm, an emission maximum (in CC#N) of 499 nm and an emission maximum (in CCCCCCC) of 426 nm. It also gave an emission maximum (in CS(C)=O) of 513 nm and an emission maximum (in ClCCl) of 475 nm.

Work on `CN(C)c1ccc2c(c1)C(C)(C)C1=CC(=[N+](C)C)C=CC1=C2C#Cc1ccccc1` yielded an emission maximum (in CO) of 705 nm and an emission maximum (in O) of 708 nm.

Work on `N#Cc1cc(/C=C/c2ccc(/C=C/c3ccc(N(c4ccccc4)c4ccccc4)cc3)c(C#N)c2)ccc1/C=C/c1ccc(N(c2ccccc2)c2ccccc2)cc1` yielded an emission maximum (in ClCCl) of 577 nm.

With `Cc1cc(=O)oc2cc3c4ccc(C(C)(C)C)cc4c4cc(C(C)(C)C)ccc4c3cc12` the emission maximum (in ClC(Cl)Cl) was 423 nm.

Compound `CCN(CC)c1ccc2cc(-c3ccc(C(F)(F)F)cc3)oc(=O)c2c1` has an emission maximum (in CC(C)=O) of 454 nm, an emission maximum (in CCCCCC) of 418 nm and an emission maximum (in CCCCO) of 468 nm. For the same compound, the emission maximum (in CCCO) was 470 nm, the emission maximum (in CCO) was 471 nm and the emission maximum (in CCOC(C)=O) was 443 nm. The emission maximum (in CN(C)C=O) was 462 nm, the emission maximum (in CO) was 475 nm and the emission maximum (in ClC(Cl)Cl) was 450 nm.

In the case of `CC(C)(C)c1ccc2oc3nc4oc5ccc(-n6c7ccccc7c7ccccc76)cc5c4cc3c2c1`, the emission maximum (in ClC(Cl)Cl) is reported as 446 nm.

With `CC(C)(C)c1ccc2c(c1)c1cc(C(C)(C)C)ccc1n2-c1ccc(-n2c3ccc(C(C)(C)C)cc3c3cc(C(C)(C)C)ccc32)c(-c2nccnc2C#N)c1` the emission maximum (in Cc1ccccc1) was 503 nm and the emission maximum (in c1cc(-n2c3ccccc3c3ccccc32)cc(-n2c3ccccc3c3ccccc32)c1) was 493 nm.

`c1cc(-c2ccc3c(c2)CCCO3)ccc1-c1ccc2c(c1)CCCO2` showed an emission maximum (in C1CCCCC1) of 351 nm.

In the case of `CC(=O)c1c2c(c(C(C)=O)c3c1OC(CC(=O)O)O3)OCO2`, the emission maximum (in CC#N) is reported as 553 nm.

Compound `COc1ccc(-c2ccc(-c3ccccc3)cc2)cc1` has an emission maximum (in C1CCCCC1) of 353 nm.

In the case of `c1ccc(-c2ncc3ccccn23)cc1`, the emission maximum (in ClC(Cl)Cl) is reported as 461 nm.

In the case of `O=c1cc2c(Br)c(O)c3cccc4ccc(o1)c2c43`, the emission maximum (in CC1CCCO1) is reported as 484 nm.

`F[B-]1(F)n2cccc2C=C2c3ccccc3C(c3ccc[nH]3)=[N+]21` gave an emission maximum (in C1CCOC1) of 596 nm, an emission maximum (in CC#N) of 594 nm and an emission maximum (in CCCCCC) of 588 nm. It also gave an emission maximum (in CO) of 592 nm, an emission maximum (in Cc1ccccc1) of 600 nm and an emission maximum (in ClCCl) of 599 nm.

Compound `Oc1cc2ccc3cc(O)cc4ccc(c1)c2c34` has an emission maximum (in CO) of 405 nm.

For `Oc1ccc(/N=C/c2ccccc2Oc2ccccc2)cc1`, the emission maximum (in C1CCCCC1) was 410 nm, the emission maximum (in C1COCCO1) was 414 nm and the emission maximum (in CC#N) was 424 nm. The emission maximum (in CC(C)=O) was 423 nm, the emission maximum (in CC(C)CO) was 410 nm and the emission maximum (in CCCCC) was 410 nm. The emission maximum (in CCCCCC) was 428 nm, the emission maximum (in CCCCCCCCO) was 420 nm and the emission maximum (in CCCCCCCO) was 413 nm. The emission maximum (in CCCCCCO) was 413 nm, the emission maximum (in CCCCO) was 419 nm and the emission maximum (in CCCCOC(C)=O) was 410 nm. It also gave an emission maximum (in CCCO) of 415 nm, an emission maximum (in CCO) of 415 nm and an emission maximum (in CCOC(C)=O) of 412 nm. The emission maximum (in CCOCC) was 427 nm, the emission maximum (in CN(C)C=O) was 423 nm and the emission maximum (in CO) was 415 nm. The emission maximum (in CS(C)=O) was 418 nm, the emission maximum (in Cc1ccccc1) was 410 nm and the emission maximum (in Cc1ccccc1C) was 414 nm. For the same compound, the emission maximum (in ClC(Cl)Cl) was 415 nm, the emission maximum (in ClCCl) was 414 nm and the emission maximum (in OCCO) was 405 nm. It also gave an emission maximum (in c1ccccc1) of 414 nm.

Work on `Cc1cc(N2c3ccccc3[Si](c3ccccc3)(c3ccccc3)c3ccccc32)c(C)cc1-c1nc(-c2ccccc2)nc(-c2ccccc2)n1` yielded an emission maximum (in Cc1ccccc1) of 465 nm and an emission maximum (in O=P(c1ccccc1)(c1ccccc1)c1ccccc1Oc1ccccc1P(=O)(c1ccccc1)c1ccccc1) of 465 nm.

`CC(C)(C)c1ccc2oc3nc4oc5ccc(-n6c7ccccc7c7cc(-n8c9ccccc9c9ccccc98)ccc76)cc5c4cc3c2c1` showed an emission maximum (in ClC(Cl)Cl) of 446 nm.

`Cc1cccc2cc(C)c3c4ccccc4[nH]c3c12` gave an emission maximum (in ClCCl) of 364 nm.

Work on `Cc1ccc2c(c1)C1(c3ccccc3-c3ccccc31)c1cc(C)ccc1N2c1ccc2c(c1)Oc1ccccc1P2(=S)c1ccccc1` (configuration not stated) yielded an emission maximum (in Cc1ccccc1) of 443.09 nm.

With `COc1cc(OC)cc(C2=[O+][B-](F)(F)OC(c3ccccc3)=C2)c1` the emission maximum (in CC#N) was 602.29 nm, the emission maximum (in CC(C)=O) was 590.78 nm and the emission maximum (in CCCCCC) was 446.17 nm. The emission maximum (in Cc1ccccc1) was 505.51 nm and the emission maximum (in ClCCl) was 554 nm.

`CC1(C)C(/C=C/C2=C(c3ccc(C(=O)O)cc3)C(=C/C=C3/N(CCCS(=O)(=O)[O-])c4ccc5ccccc5c4C3(C)C)/CCC2)=[N+](CCCS(=O)(=O)[O-])c2ccc3ccccc3c21` gave an emission maximum (in CO) of 811 nm.

With `COc1ccc(-c2cc3c(ccc4sc5ccc6sc(-c7ccc(C#N)cc7)cc6c5c43)s2)cc1` the emission maximum (in ClCCl) was 469 nm.
